From patent US20170305857A1, “N-ACYLPIPERIDINE ETHER TROPOMYOSIN-RELATED KINASE INHIBITORS” (Pfizer Limited, priority 2014, published 2017)

Target: T1, recombinant His-tagged cytoplasmic domains of TRKA receptor (NTRK1, PV3144, aa 441-796) (Homo sapiens, UniProt P04629)
T1 construct: aa 441-796; His; purchased Invitrogen PV3144
Assay: Isolated TRK enzyme assay (HTRF KinEASE-TK, PV3144 TrkA enzyme assay)
Assay type: biochemical
Conditions: 4 nM enzyme, 40 uM ATP, 35 min, arithmetic mean where more than one reading
Method: Isolated TRK Enzyme assays use the HTRF KinEASE-TK kit (Cisbio Cat #62TK0PEJ) with recombinant His-tagged cytoplasmic domains of TRKA receptor sourced from Invitrogen (see table below). This activity-assay measures the phosphorylation of tyrosine residues within a substrate from the HTRF kit which has been validated by Cisbio for a variety of tyrosine kinases including the TRK receptors.
0.5 mM stock solutions of test compounds are prepared and serially diluted in 100% DMSO. […] Greiner low volume black plates containing 0.2 ul of serially diluted compound, standard and HPE/ZPE are created using the Bravo nanolitre dispenser.
1× enzyme buffer is prepared from 5× Enzymatic Buffer from the Cisbio KinEASE TK kit using MilliQ water. The buffer is then supplemented with 10 mM MgCl and 2 mM DTT (both from Sigma).
Following this preactivation step, 5 ul/well of enzyme+ATP mix is added using a Multidrop Micro to the assay plate, spotted with 0.2 ul 100% DMSO compound. This is left for 20 mins at room temperature before adding 5 ul of 2 uM TK-substrate-Biotin (from the Cisbio kit) diluted in 1× enzyme buffer (1 uM FAC) using the Multidrop Micro. The reaction is incubated at room temperature for the optimized assay reaction time (see table).
After the Detection Reagent addition, plates are covered and incubated at room temperature for 60 minutes. […] Test compound data are expressed as percentage inhibition defined by HPE and ZPE values for each plate. Percentage inhibition in the presence of test compound is plotted against compound concentration on a log scale to determine an IC50 from the resultant sigmoid curve.
Where more than one reading was taken, the arithmetic mean is presented.

T1 sequence (P04629 441-796): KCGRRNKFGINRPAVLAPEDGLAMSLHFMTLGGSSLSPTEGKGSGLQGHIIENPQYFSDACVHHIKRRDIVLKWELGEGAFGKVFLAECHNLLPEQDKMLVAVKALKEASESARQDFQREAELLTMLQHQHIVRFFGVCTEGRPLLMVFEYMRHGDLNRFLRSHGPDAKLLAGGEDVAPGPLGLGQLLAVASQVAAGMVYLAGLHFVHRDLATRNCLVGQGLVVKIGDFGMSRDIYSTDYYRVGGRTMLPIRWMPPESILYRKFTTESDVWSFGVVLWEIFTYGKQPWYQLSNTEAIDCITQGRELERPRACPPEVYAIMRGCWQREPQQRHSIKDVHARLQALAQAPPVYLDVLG

| IC50 | Structure (SMILES) |
| --- | --- |
| 7.4 nM | COCc1ccc(-c2cnc(OC3CCN(C(=O)Cc4ccc(OC(F)(F)F)cc4)CC3)c(C(N)=O)c2)cc1 [Example 97, 5-[4-(methoxymethyl)phenyl]-2-[(1-{[4-(trifluoromethoxy)phenyl]acetyl}piperidin-4-yl)oxy]pyridine-3-carboxamide] |
| 17.1 nM | NC(=O)c1cc(-c2cnn(CCO)c2)ncc1OC1CCN(C(=O)Cc2ccc(OC(F)(F)F)cc2)CC1 [Example 175, 2-[1-(2-hydroxyethyl)-1H-pyrazol-4-yl]-5-[(1-{[4-(trifluoromethoxy)phenyl]acetyl}piperidin-4-yl)oxy]pyridine-4-carboxamide] |
| 13.7 nM | Cn1cc(-c2ccc(OC3CCN(C(=O)Cc4ccc(OC(F)(F)F)cc4)CC3)c(C(N)=O)c2)c(C#N)n1 [Example 149, 5-(3-cyano-1-methyl-1H-pyrazol-4-yl)-2-[(1-{[4-(trifluoromethoxy)phenyl]acetyl}piperidin-4-yl)oxy]benzamide] |
| 5.3 nM | NC(=O)c1cc(-c2c[nH]nn2)ccc1OC1CCN(C(=O)Cc2ccc(OC(F)(F)F)cc2)CC1 [Example 136, 5-(1H-1,2,3-triazol-4-yl)-2-((1-(2-(4-(trifluoromethoxy)phenyl)acetyl)piperidin-4-yl)oxy)benzamide] |
| 16.5 nM | Cc1nc(C)c(-c2ccc(OC3CCN(C(=O)Cc4ccc(OC(F)(F)F)cc4)CC3)c(C(N)=O)c2)s1 [Example 143, 5-(2,4-dimethyl-1,3-thiazol-5-yl)-2-[(1-{[4-(trifluoromethoxy)phenyl]acetyl}piperidin-4-yl)oxy]benzamide] |
| 2.7 nM | CC(N)c1ccc(-c2ccc(OC3CCN(C(=O)Cc4ccc(OC(F)(F)F)cc4)CC3)c(C(N)=O)c2)cc1 (racemic) [Example 103, Racemic 4′-(1-aminoethyl)-4-[(1-{[4-(trifluoromethoxy)phenyl]acetyl}piperidin-4-yl)oxy]biphenyl-3-carboxamide] |
| 3.9 nM | CC(C)(O)Cn1cc(-c2ccc(OC3CCN(C(=O)Cc4ccc(OC(F)(F)F)cc4)CC3)c(C(N)=O)c2)cn1 [Example 135] |
| 4.4 nM | NC(=O)c1cc(-c2cn[nH]c2)ccc1O[C@H]1CCN(C(=O)Cc2ccc(OC3CC3)cn2)C[C@@H]1F [Example 84, 2-{[(3S,4S)-1-{[5-(cyclopropyloxy)pyridin-2-yl]acetyl}-3-fluoropiperidin-4-yl]oxy}-5-(1H-pyrazol-4-yl)benzamide] |
| 12.7 nM | C[C@H](O)c1ccc(-c2cnc(OC3CCN(C(=O)Cc4ccc(OC(F)(F)F)cc4)CC3)c(C(N)=O)c2)cc1 [Example 152, 5-{4-[(1S)-1-hydroxyethyl]phenyl}-2-[(1-{[4-(trifluoromethoxy)phenyl]acetyl}piperidin-4-yl)oxy]pyridine-3-carboxamide] |
| 2.93 nM | Cn1ncc(-c2cnc(O[C@@H]3CCN(C(=O)Cc4ccc(OC(F)(F)F)cc4)C[C@@H]3F)c(C(N)=O)c2)n1 [Example 154, 2-{[(3S,4R)-3-fluoro-1-{[4-(trifluoromethoxy)phenyl]acetyl}piperidin-4-yl]oxy}-5-(2-methyl-2H-1,2,3-triazol-4-yl)pyridine-3-carboxamide] |
| 7.12 nM | NC(=O)c1cc(-c2c[nH]c(C(F)(F)F)n2)cnc1O[C@@H]1CCN(C(=O)Cc2ccc(OC(F)(F)F)cc2)C[C@@H]1F [Example 183, 2-{[(3S,4R)-3-fluoro-1-{[4-(trifluoromethoxy)phenyl]acetyl}piperidin-4-yl]oxy}-5-[2-(trifluoromethyl)-1H-imidazol-4-yl]pyridine-3-carboxamide] |
| 5 nM | NCc1ccc(-c2ccc(OC3CCN(C(=O)Cc4ccc(OC(F)(F)F)cc4)CC3)c(C(N)=O)c2)cc1 [Example 105, 4′-(aminomethyl)-4-[(1-{[4-(trifluoromethoxy)phenyl]acetyl}piperidin-4-yl)oxy]biphenyl-3-carboxamide] |
| 12.8 nM | CS(=O)(=O)Cn1cc(-c2cc(C(N)=O)c(O[C@H]3CCN(C(=O)Cc4ccc(OC(F)(F)F)cc4)C[C@@H]3F)cn2)cn1 [Example 166, 5-{[(3S,4S)-3-fluoro-1-{[4-(trifluoromethoxy)phenyl]acetyl}piperidin-4-yl]oxy}-2-{1-[(methylsulfonyl)methyl]-1H-pyrazol-4-yl}pyridine-4-carboxamide] |
| 8 nM | NC(=O)c1cc(-c2cnn(C[C@H](O)CO)c2)ccc1OC1CCN(C(=O)Cc2ccc(OC(F)(F)F)cc2)CC1 [Example 119, 5-{1-[(2S)-2,3-dihydroxypropyl]-1H-pyrazol-4-yl}-2-[(1-{[4-(trifluoromethoxy)phenyl]acetyl}piperidin-4-yl)oxy]benzamide] |
| 2.6 nM | NC(=O)c1cc(-c2cn[nH]c2)cnc1O[C@@H]1CCN(C(=O)Cc2ccc(OC3CC3)cn2)C[C@@H]1F [Example 78, 2-{[(3S,4R)-1-{[5-(cyclopropyloxy)pyridin-2-yl]acetyl}-3-fluoropiperidin-4-yl]oxy}-5-(1H-pyrazol-4-yl)pyridine-3-carboxamide] |

Second part, the compound before the results:

| Structure (SMILES) | IC50 |
| --- | --- |
| NC(=O)c1cc(-c2cnn(CCO)c2)ccc1OC1CCN(C(=O)Cc2ccc(OC(F)(F)F)cc2)CC1 [Example 58, 5-[1-(2-hydroxyethyl)-1H-pyrazol-4-yl]-2-[(1-{[4-(trifluoromethoxy)phenyl]acetyl}piperidin-4-yl)oxy]benzamide] | 5.5 nM |
| Cn1cnc(-c2ccc(O[C@@H]3C[C@H]4CC[C@@H](C3)N4C(=O)Cc3ccc(OC(F)(F)F)cc3)c(C(N)=O)c2)c1 [Example 48, 5-(1-methyl-1H-imidazol-4-yl)-2-(((1R,3s,5S)-8-(2-(4-(trifluoromethoxy)phenyl)acetyl)-8-azabicyclo[3.2.1]octan-3-yl)oxy)benzamide] | 3.6 nM |
| Cn1cc(-c2ccc(O[C@@H]3CCN(C(=O)Cc4ccc(OC(F)(F)F)cc4)C[C@@H]3F)c(C(N)=O)c2)cn1 [Example 74, 2-{[(3S,4R)-3-fluoro-1-{[4-(trifluoromethoxy)phenyl]acetyl}piperidin-4-yl]oxy}-5-(1-methyl-1H-pyrazol-4-yl)benzamide] | 0.9 nM |
| Cc1nc(OC2CCN(C(=O)Cc3ccc(OC(F)(F)F)cc3)CC2)c(C(N)=O)cc1-c1cn(C)cn1 [Example 69, 6-methyl-5-(1-methyl-1H-imidazol-4-yl)-2-[(1-{[4-(trifluoromethoxy)phenyl]acetyl}piperidin-4-yl)oxy]pyridine-3-carboxamide] | 6.1 nM |
| C[C@@H](N)c1ccc(-c2ccc(OC3CCN(C(=O)Cc4ccc(OC(F)(F)F)cc4)CC3)c(C(N)=O)c2)cc1 [Example 64, 4′-[(1R)-1-aminoethyl]-4-[(1-{[4-(trifluoromethoxy)phenyl]acetyl}piperidin-4-yl)oxy]biphenyl-3-carboxamide] | 2.8 nM |
| Cn1cnc(-c2ccc(O[C@H]3[C@@H]4CC[C@H]3CN(C(=O)Cc3ccc(OC(F)(F)F)cc3)C4)c(C(N)=O)c2)c1 [Example 46, 5-(1-methyl-1H-imidazol-4-yl)-2-(((1R,5S,8r)-3-(2-(4-(trifluoromethoxy)phenyl)acetyl)-3-azabicyclo[3.2.1]octan-8-yl)oxy)benzamide] | 2.2 nM |
| CS(=O)(=O)Cn1cc(-c2cnc(OC3CCN(C(=O)Cc4ccc(OC(F)(F)F)cc4)CC3)c(C(N)=O)c2)cn1 [Example 20, 5-{1-[(methylsulfonyl)methyl]-1H-pyrazol-4-yl}-2-[(1-{[4-(trifluoromethoxy)phenyl]acetyl}pjperidin-4-yl)oxy]pyridine-3-carboxamide] | 5.7 nM |
| CC(C)(O)Cn1cc(-c2cnc(O[C@@H]3CCN(C(=O)Cc4ccc(OC5CC5)cn4)C[C@@H]3F)c(C(N)=O)c2)cn1 [Example 32, 2-{[(3S,4R)-1-{[5-(cyclopropyloxy)pyridin-2-yl]acetyl}-3-fluoropiperidin-4-yl]oxy}-5-[1-(2-hydroxy-2-methylpropyl)-1H-pyrazol-4-yl]pyridine-3-carboxamide] | 7.2 nM |
| CS(=O)(=O)Cn1cc(-c2cnc(O[C@@H]3CCN(C(=O)Cc4ccc(OC(F)(F)F)cc4)C[C@@H]3F)c(C(N)=O)c2)cn1 [Example 55, 2-{[(3S,4R)-3-fluoro-1-{[4-(trifluoromethoxy)phenyl]acetyl}piperidin-4-yl]oxy}-5-{1-[(methylsulfonyl)methyl]-1H-pyrazol-4-yl}pyridine-3-carboxamide] | 1.8 nM |
| Cn1cnc(-c2cnc(O[C@H]3CCN(C(=O)Cc4ccc(OC5CC5)cn4)C[C@@H]3F)c(C(N)=O)c2)c1 [Example 31, 2-{[(3S,4S)-1-{[5-(cyclopropyloxy)pyridin-2-yl]acetyl}-3-fluoropiperidin-4-yl]oxy}-5-(1-methyl-1H-imidazol-4-yl)pyridine-3-carboxamide] | 9 nM |
| Cn1cnc(-c2ccc(O[C@@H]3CCN(C(=O)Cc4ccc(OC(F)(F)F)cc4)C[C@@H]3F)c(C(N)=O)c2)c1 [Example 6, 2-{[(3S,4R)-3-fluoro-1-(2-(4-(trifluoromethoxy)phenyl)acetyl)piperidin-4-yl]oxy}-5-(1-methyl-1H-imidazol-4-yl)benzamide] | 1.5 nM |
| NC(=O)c1cc(N2CCCC2)ncc1OC1CCN(C(=O)Cc2ccc(OC(F)(F)F)cc2)CC1 [Example 54, 2-(pyrrolidin-1-yl)-5-((1-(2-(4-(trifluoromethoxy)phenyl)acetyl)piperidin-4-yl)oxy)isonicotinamide] | 42.4 nM |
